Results on one compound are retold here after ChEMBL document CHEMBL1153301, “Identification and SAR of novel diaminopyrimidines. Part 1: The discovery of RO-4, a dual P2X(3)/P2X(2/3) antagonist for the treatment of pain” (Bioorg Med Chem Lett, 2009).

Data set [1] concerns the target T1, P2X purinoceptor 7 (Homo sapiens, UniProt Q99572).
T1 sequence (Q99572 whole entry): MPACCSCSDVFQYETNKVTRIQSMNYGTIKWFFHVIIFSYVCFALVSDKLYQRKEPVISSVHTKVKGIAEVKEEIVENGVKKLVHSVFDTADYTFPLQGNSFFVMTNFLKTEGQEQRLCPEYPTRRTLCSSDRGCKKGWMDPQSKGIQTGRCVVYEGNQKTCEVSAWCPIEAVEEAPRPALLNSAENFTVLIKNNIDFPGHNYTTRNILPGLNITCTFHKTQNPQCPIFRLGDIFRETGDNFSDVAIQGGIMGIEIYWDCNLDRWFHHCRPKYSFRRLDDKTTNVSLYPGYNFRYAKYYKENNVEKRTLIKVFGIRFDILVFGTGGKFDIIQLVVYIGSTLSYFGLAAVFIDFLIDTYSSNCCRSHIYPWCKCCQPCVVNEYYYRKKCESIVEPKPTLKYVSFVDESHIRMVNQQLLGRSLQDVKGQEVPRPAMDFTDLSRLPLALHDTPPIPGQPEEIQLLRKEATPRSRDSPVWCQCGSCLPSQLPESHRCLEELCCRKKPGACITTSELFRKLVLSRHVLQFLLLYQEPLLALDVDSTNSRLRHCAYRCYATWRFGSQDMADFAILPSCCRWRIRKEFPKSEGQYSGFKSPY
Put plainly: Inhibition of P2X7 receptor.

Data set [2] is described as follows: Clearance in dog. It is filed as ADME, organism-based, Canis lupus familiaris. Particulars: in vivo.
Data set [3] addresses 5-hydroxytryptamine receptor 2A (Homo sapiens, UniProt P28223). Kind of data set: Inhibition of 5HT2A receptor.
Data set [4] has as its target Histamine H2 receptor (Homo sapiens, UniProt P25021). Put plainly: Inhibition of histamine H2 receptor.
Data set [5] addresses T2, P2X purinoceptor 3 (Rattus norvegicus, UniProt P49654).
T2 sequence (P49654 whole entry): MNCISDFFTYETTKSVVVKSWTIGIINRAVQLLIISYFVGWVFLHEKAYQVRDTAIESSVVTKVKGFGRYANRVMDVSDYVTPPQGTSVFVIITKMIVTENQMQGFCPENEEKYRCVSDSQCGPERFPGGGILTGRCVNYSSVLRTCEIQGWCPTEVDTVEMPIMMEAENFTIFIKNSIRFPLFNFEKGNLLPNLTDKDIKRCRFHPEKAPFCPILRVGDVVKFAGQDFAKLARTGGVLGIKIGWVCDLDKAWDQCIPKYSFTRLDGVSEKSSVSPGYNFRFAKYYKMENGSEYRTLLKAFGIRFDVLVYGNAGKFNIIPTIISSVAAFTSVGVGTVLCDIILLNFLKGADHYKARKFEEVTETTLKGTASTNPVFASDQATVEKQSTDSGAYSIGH
Put plainly: Antagonist activity at rat recombinant P2X3 receptor expressed in CHO cells by FLIPR assay. The following applies: cho.

Data set [6] deals with T3, P2X purinoceptor 2 (Homo sapiens, UniProt Q9UBL9).
T3 sequence (Q9UBL9 whole entry): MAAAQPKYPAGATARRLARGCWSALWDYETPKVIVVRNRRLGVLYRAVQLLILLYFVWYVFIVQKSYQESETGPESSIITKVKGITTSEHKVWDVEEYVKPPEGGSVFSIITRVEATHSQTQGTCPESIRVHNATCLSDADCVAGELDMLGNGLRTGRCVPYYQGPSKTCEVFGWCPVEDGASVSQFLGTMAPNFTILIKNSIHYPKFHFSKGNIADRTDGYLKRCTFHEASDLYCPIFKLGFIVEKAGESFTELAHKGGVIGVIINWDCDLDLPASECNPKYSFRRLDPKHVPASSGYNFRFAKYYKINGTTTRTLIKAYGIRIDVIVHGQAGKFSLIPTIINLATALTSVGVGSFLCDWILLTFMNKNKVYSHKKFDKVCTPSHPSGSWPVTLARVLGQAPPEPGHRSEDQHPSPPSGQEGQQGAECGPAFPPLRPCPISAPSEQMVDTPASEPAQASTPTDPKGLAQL
Put plainly: Inhibition of P2X2 receptor.

For data set [7], the target named is T4, P2X2/P2X3 heterotrimeric receptor (Homo sapiens, UniProt P56373+Q9UBL9).
T4 sequence (Q9UBL9 whole entry): T3 sequence (Q9UBL9 whole entry)
T4 sequence (P56373 whole entry): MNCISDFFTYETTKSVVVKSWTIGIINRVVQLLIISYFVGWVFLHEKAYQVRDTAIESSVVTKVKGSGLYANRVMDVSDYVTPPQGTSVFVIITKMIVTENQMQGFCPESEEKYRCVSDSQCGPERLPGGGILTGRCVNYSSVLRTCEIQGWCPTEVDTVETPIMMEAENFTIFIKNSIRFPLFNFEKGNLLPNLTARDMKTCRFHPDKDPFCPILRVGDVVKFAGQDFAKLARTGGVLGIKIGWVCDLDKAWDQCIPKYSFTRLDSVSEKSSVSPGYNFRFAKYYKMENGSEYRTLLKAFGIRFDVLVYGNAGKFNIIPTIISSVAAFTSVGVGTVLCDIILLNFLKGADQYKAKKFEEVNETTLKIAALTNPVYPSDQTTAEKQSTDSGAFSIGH
Kind of data set: Antagonist activity at human recombinant P2X2/3 receptor expressed in human 1321N1 cells by FLIPR assay. It is filed as functional, cell-based.

Data set [8] relates to Caco-2. Put plainly: Ratio of permeability from basolateral to apical side over apical to basolateral side in human Caco-2 cells. It counts as ADME, cell-based. In general terms: Caco-2 cells form a polarised layer with tight junctions and transporters.
In data set [9] the target is T5, 5-hydroxytryptamine receptor 3A (Homo sapiens, UniProt P46098).
T5 sequence (P46098 whole entry): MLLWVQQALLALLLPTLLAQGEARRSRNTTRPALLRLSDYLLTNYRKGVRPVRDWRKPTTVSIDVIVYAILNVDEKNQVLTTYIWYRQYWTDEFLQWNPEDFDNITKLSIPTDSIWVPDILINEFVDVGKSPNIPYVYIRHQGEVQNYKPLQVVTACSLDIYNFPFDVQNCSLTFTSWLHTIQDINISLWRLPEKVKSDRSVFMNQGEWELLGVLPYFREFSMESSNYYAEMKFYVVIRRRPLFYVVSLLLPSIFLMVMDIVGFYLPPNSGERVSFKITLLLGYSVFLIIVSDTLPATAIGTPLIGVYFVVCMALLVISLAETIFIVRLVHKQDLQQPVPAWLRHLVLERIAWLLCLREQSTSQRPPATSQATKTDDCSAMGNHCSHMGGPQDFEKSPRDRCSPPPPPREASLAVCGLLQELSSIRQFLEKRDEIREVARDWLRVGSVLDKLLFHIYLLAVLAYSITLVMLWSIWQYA
Kind of data set: Inhibition of 5HT3 receptor.

The target of data set [10] is T6, P2X purinoceptor 4 (Homo sapiens, UniProt Q99571).
T6 sequence (Q99571 whole entry): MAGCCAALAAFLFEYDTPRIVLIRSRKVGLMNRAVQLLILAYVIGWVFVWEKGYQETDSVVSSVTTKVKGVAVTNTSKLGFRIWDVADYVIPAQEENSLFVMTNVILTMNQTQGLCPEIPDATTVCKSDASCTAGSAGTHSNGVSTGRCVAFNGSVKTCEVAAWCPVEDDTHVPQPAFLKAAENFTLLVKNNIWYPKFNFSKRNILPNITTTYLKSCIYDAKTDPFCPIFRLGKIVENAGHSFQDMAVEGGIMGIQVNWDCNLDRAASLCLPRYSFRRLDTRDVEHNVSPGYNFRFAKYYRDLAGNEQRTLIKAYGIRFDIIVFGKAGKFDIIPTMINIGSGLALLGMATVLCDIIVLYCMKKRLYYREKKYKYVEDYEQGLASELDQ
Put plainly: Inhibition of P2X4 receptor.

For data set [11], the target named is P2X purinoceptor 5 (Homo sapiens, UniProt Q93086). Kind of data set: Inhibition of P2X5 receptor.
Chain of P2X purinoceptor 5 (Q93086 whole entry): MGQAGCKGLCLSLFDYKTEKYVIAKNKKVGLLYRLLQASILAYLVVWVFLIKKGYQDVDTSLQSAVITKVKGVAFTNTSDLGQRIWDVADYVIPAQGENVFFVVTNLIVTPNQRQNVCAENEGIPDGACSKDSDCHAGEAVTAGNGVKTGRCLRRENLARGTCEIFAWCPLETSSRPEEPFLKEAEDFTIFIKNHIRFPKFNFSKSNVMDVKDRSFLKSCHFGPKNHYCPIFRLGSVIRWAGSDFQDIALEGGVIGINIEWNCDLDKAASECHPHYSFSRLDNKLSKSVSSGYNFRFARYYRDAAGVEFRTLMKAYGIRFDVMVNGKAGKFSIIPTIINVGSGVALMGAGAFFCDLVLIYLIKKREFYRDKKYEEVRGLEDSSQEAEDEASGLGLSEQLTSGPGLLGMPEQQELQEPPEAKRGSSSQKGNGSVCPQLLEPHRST
A short description of data set [12]: Inhibition of ML1 receptor.
The target in data set [13] is 5-hydroxytryptamine receptor 6 (Homo sapiens, UniProt P50406). Put plainly: Inhibition of 5HT6 receptor.
Chain of 5-hydroxytryptamine receptor 6 (P50406 whole entry): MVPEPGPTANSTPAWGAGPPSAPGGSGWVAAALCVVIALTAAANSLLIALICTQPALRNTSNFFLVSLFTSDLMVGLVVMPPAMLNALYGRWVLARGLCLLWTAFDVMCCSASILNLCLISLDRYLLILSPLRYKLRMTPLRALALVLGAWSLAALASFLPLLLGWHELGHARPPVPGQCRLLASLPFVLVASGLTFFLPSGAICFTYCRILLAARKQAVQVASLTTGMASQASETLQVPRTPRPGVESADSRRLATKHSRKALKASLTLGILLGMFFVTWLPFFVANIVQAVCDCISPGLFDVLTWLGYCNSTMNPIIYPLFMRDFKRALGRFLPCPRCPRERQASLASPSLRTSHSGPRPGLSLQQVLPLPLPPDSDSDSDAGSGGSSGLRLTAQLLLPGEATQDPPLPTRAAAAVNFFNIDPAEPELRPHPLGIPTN
Data set [14] concerns the target T7, P2X purinoceptor 1 (Homo sapiens, UniProt P51575).
T7 sequence (P51575 whole entry): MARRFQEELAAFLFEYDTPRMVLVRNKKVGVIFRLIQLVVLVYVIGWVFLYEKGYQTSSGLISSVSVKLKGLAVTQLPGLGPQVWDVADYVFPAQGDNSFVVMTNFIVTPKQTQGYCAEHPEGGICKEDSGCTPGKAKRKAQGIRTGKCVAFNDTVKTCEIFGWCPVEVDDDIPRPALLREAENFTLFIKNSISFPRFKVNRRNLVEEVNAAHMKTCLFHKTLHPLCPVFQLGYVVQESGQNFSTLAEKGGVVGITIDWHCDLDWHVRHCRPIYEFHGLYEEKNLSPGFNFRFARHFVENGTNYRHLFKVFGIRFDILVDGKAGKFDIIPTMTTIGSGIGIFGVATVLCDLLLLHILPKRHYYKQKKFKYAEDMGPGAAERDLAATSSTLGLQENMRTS
Put plainly: Inhibition of P2X1 receptor.

SMILES strings stand for the structures.

Chain of 5-hydroxytryptamine receptor 2A (P28223 whole entry): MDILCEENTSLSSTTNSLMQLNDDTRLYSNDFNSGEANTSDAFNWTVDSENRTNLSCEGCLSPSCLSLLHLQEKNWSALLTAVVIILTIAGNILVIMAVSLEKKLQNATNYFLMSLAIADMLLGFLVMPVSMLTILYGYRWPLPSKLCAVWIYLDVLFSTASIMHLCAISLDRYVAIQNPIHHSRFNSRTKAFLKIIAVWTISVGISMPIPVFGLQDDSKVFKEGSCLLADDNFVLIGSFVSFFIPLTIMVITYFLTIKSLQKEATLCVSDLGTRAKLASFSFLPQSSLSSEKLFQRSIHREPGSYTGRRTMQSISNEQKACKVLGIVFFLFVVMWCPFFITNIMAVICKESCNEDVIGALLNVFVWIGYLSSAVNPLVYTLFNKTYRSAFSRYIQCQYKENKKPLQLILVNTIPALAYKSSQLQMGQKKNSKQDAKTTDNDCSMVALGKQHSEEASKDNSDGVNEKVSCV
Chain of Histamine H2 receptor (P25021 whole entry): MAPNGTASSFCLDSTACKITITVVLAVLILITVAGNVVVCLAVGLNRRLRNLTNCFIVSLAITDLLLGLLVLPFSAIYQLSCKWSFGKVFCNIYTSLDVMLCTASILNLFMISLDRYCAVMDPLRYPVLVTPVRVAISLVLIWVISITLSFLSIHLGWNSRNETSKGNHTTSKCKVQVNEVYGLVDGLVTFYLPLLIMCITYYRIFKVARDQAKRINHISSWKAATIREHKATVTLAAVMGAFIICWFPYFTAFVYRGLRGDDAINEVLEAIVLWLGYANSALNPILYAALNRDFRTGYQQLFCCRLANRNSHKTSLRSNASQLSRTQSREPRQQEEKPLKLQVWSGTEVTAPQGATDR

With `COc1cc(C(C)C)c(Oc2cnc(N)nc2N)cc1I`, the IC50 was more than 10 µM in data set [1]; more than 10 µM in [6]; 0.0794 µM in data set [7]; more than 10 µM in data set [10]; more than 10 µM in [11]; more than 10 µM in [14]. For the same compound, the clearance in data set [2] is 0.78 L/h/kg. For the same compound, the Ki in data set [3], in data set [4], in data set [9], in data set [12] and in [13] was 1 µM throughout. Besides, the negative-log IC50 (pIC50) in [5] worked out at 8. Further, the Ratio in [8] came out at 1.

What is called IC50 is the concentration that inhibits the measured activity by half. Usually clearance stands for the rate of elimination divided by the concentration. A higher clearance goes with a high capacity for elimination. One may read the Ki as a measure of affinity in units of concentration, obtained from inhibition or displacement. The term pIC50 denotes the negative decadic logarithm of the IC50, by convention in mol/L.
